System: adhesion of neutrophils to EA.hy 926 endothelial cell line
Test: Adhesion of neutrophils to TNFα-induced EA.hy 926 endothelial cells
Assay type: cell-based
Conditions: for reduction of adhesion of neutrophils to cytokine-induced endothelial cell line: EAhy. 926; for inhibition of the adhesion: lower concentration, percent of the adhesion induced by TNFα
Description: The applicants of the present invention have shown that lycopene, lutein and 7% Lye-O-Mato® can improve endothelial function by reducing, to similar extent (60±15%), the adhesion of neutrophils to cytokine-induced endothelial cell line (EAhy. 926). […] Lycopene 610 and oleoresin were diluted by 1:12 fold and lutein by 1:8 fold which result in ˜0.2 μM lycopene 610, ˜0.125 μM oleoresin and ˜0.6 μM lutein. The adhesion of neutrophils to EA.hy 926 cells were measured after the endothelial cells were induced by TNFα which result in increase of 60±10% in the adhesion from their combination, was calculated as percent of the adhesion induced by TNFα

Compound | reduction of adhesion of neutrophils to cytokine-induced endothelial cell line (high concentration: lycopene 610 2-3 μM) | inhibition of the adhesion (~0.2 μM lycopene 610, FIG. 1B) | reduction of adhesion of neutrophils to cytokine-induced endothelial cell line (high concentration: lutein 4-5 μM) | inhibition of the adhesion (~0.6 μM lutein, FIG. 1A)
CC(C)=CCC/C(C)=C/C=C/C(C)=C/C=C/C(C)=C/C=C/C=C(C)/C=C/C=C(C)/C=C/C=C(\C)CCC=C(C)C [lycopene] | 60±15% | 40±22% |  | 
CC1=C[C@H](O)CC(C)(C)[C@H]1/C=C/C(C)=C/C=C/C(C)=C/C=C/C=C(C)/C=C/C=C(C)/C=C/C1=C(C)C[C@@H](O)CC1(C)C [lutein] |  |  | 60±15% | 56±15%
